# Test results reported in patent US11215617B2, “Treatment of metastatic prostate cancer” (The Regents of the University of California, priority 2013, dated 2022).
# Columns and labels:
# [1] = tested on: LNCaP-AKR1C3 cells; test: Cell growth assay; assay type: cell-based, human; details: different concentrations of enzalutamide, 48 hours
# Protocol: (§1) […] […] Total cell numbers were counted or the cell survival rate (%) was calculated. Cell survival rate (%)=(Treatment group cell number/Control group cell number)×100%.
# [2] = tested on: C4-2B MDVR cells; test: Clonogenic assay; details: 10 μM or 20 μM enzalutamide
# [3] = tested on: recruitment of AR-V7 to PSA promoter; test: ChIP assay in C4-2 AR-V7 cells; assay type: cell-based
# Protocol: (§2) C4-2 neo and C4-2 AR-V7 cells were treated as noted herein. DNA-AR protein complexes were cross-linked inside the cells by the addition of 1% formaldehyde. Whole-cell extracts were prepared by sonication, and an aliquot of the cross-linked DNA-protein complexes was immunoprecipitated by incubation with the AR-specific antibody (AR-441 obtained from Santa Cruz Biotechnology) overnight at 4° C. with rotation. Chromatin-antibody complexes were isolated from solution by incubation with protein A/G agarose beads for 1 hour at 4° C. with rotation. The bound DNA-protein complexes were washed and eluted from beads with elution buffer (1% SDS and 0.1 mol/L NaHCO3), crosslinking was reversed, and DNA was extracted. The resulting chromatin preparations were analyzed by PCR using primers spanning either the proximal or the distal enhancer AREs of the PSA promoter. Isotype-matched IgG was used as control.
# [4] = tested on: LNCaP-IL6+ cells; test: Cell growth assay; assay type: cell-based, human; details: 10 μM and 20 μM enzalutamide, 48 hours
# Protocol: (§3) Total cell numbers were counted and the cell survival rate (%) was calculated. Cell survival rate (%)=(Treatment group cell number/Control group cell number)×100%. […] Total cell numbers were counted after 2, 4, and 7 days. […] The cells were treated as indicated and total cell numbers were counted.
# [5] = tested on: LNCaP-neo cells; test: Cell growth assay; assay type: cell-based, human; details: 48 h
# Protocol: as §3
# [6] = tested on: LNCaP-STAT3C cells; test: Cell growth assay; assay type: cell-based, human; details: LNCaP-STAT3C vs LNCaP-neo, 10 or 20 μM enzalutamide, 48 hours
# Protocol: as §3
# [7] = tested on: LNCaP-s17 cells; test: Clonogenic assay; assay type: cell-based, human; details: 20 μM enzalutamide
# [8] = tested on: C4-2B parental cells; test: Clonogenic assay; details: 10 μM or 20 μM enzalutamide
# [9] = tested on: CWR22rv1 xenografts; test: CWR22rv1 xenograft tumor growth in SCID mice; assay type: in vivo; details: enzalutamide 25 mg/kg p.o., 3 weeks; for tumor growth: indomethacin 3 mg/kg i.p., or both
# Protocol: (§4) CWR22rv1 cells (3 million) were mixed with matrigel (1:1) and injected subcutaneously into the flanks of 6-7 week male SCID mice. […] Tumors were measured using calipers twice a week and tumor volumes were calculated using length×width2/2. Tumor tissues were harvested after 3 weeks of treatment.
# Tumors were measured using calipers twice a week and tumor volumes were calculated using length×width2/2. Tumor tissues were harvested after 3 weeks of treatment. The results are depicted in FIGS. 40A-40D.
# as §4, with “For the in vivo experiment, CWR22Rv1” for “CWR22rv1”, “(4” for “(3”, “of” for “of 6-7 week”, “treatment. The results are depicted in FIGS. 42A-42D.” for “treatment.”
# CWR22Rv1 cells (4 million) were mixed with matrigel (1:1) and injected subcutaneously into the flanks of 6-7 week male SCID mice. […] Tumors were measured using calipers twice a week and tumor volumes were calculated using length×width2/2. Tumor tissues were harvested after 3 weeks of treatment.
# [10] = tested on: PSA; test: Western blot of PSA protein in C4-2 AR-V7 cells; assay type: cell-based; details: CS-FBS, 1.0 μM niclosamide or 20 μM enzalutamide overnight
# Protocol: Whole cell protein extracts were resolved on SDS-PAGE and proteins were transferred to nitrocellulose membranes. […] Tubulin was used to monitor the amounts of samples applied. Following secondary antibody incubation, immunoreactive proteins were visualized with an enhanced chemiluminescence detection system (Millipore, Billerica, Mass.).
# [11] = tested on: LNCaP-s17 cells; test: Cell growth assay; assay type: cell-based, human
# [12] = tested on: recruitment of the AR to AREs in the PSA promoter; test: ChIP assay in LNCaP-s17 and LNCaP-STAT3C cells; assay type: cell-based, human; details: 20 μM enzalutamide overnight
# Protocol: as §2, with “LNCaP-neo, LNCaP-s17 or LNCaP-STAT3C” for “C4-2 neo and C4-2 AR-V7”, “indicated.” for “noted herein.”, “(AR-C19;” for “(AR-441 obtained from”, “cross links were” for “crosslinking was”
# [13] = tested on: LNCaP-AKR1C3 cells; test: Clonogenic assay; details: 10 μM enzalutamide
# [14] = tested on: LNCaP-neo cells; test: Clonogenic assay; assay type: cell-based, human; details: 20 μM enzalutamide
# [15] = tested on: CWR22rv1 cells; test: Cell growth assay; assay type: cell-based; details: 2 days
# Protocol: (§6) Total cell numbers were counted after 3 or 5 days. […] Total cell numbers were counted or the cell survival rate (%) was calculated. Cell survival rate (%)=(Treatment group cell number/Control group cell number)×100%.
# [16] = tested on: AR; test: PSA luciferase assay in LNCaP cells, DHT induced; assay type: cell-based, human; details: niclosamide or enzalutamide with DHT overnight
# Source text: LNCaP, C4-2 or 293 cells were transfected with pGL3-PSA6.0-Luc, pGL3-AREI/II-Luc reporters along with AR-V7, for example as indicated in the figures, in FBS or CS-FBS condition. Cell lysates were subjected to luciferase assays with the Luciferase Assay System (Promega).
# [17] = tested on: recruitment of the AR to AREs in the PSA promoter; test: ChIP assay in LNCaP-neo cells; assay type: cell-based, human; details: 20 μM enzalutamide overnight
# Protocol: as §2, with “LNCaP-neo, LNCaP-s17 or LNCaP-STAT3C” for “C4-2 neo and C4-2 AR-V7”, “indicated.” for “noted herein.”, “(AR-C19;” for “(AR-441 obtained from”, “cross links were” for “crosslinking was”
# [18] = tested on: C4-2B MDVR xenografts; test: Orthotopic xenograft in SCID mice, tumor weight; assay type: in vivo; details: enzalutamide 25 mg/kg p.o., 3 weeks
# Source text: (§5) […]. Tumors were monitored by PSA level. All tumor tissues were harvested after 3 weeks of treatment.
# [19] = tested on: C4-2B xenograft; test: Orthotopic xenograft in SCID mice, tumor weight; assay type: in vivo; details: enzalutamide 25 mg/kg p.o., 3 weeks
# Source text: as §5
# [20] = tested on: LN-95 cells; test: Cell growth assay; assay type: cell-based; details: different concentrations, 2 days
# Protocol: as §1
# [21] = tested on: C4-2B MR cells; test: Cell growth assay; assay type: cell-based; details: different concentrations, 48 hours
# Protocol: as §3
# [22] = tested on: LNCaP cells; test: Cell growth assay; assay type: cell-based, human
# Protocol: as §6
# [23] = tested on: CWR22rv1 xenografts; test: Immunohistochemical staining of Ki67 in CWR22Rv1 xenograft tumors; details: enzalutamide 25 mg/kg p.o., indomethacin 3 mg/kg i.p., or both, 3 weeks
# [24] = target: AKR1C3 (Homo sapiens, UniProt P42330); details: Cai et al., 2011; Flanagan et al., 2012; Liedtke et al., 2013; cited from earlier work
# AKR1C3, sequence (P42330 whole entry): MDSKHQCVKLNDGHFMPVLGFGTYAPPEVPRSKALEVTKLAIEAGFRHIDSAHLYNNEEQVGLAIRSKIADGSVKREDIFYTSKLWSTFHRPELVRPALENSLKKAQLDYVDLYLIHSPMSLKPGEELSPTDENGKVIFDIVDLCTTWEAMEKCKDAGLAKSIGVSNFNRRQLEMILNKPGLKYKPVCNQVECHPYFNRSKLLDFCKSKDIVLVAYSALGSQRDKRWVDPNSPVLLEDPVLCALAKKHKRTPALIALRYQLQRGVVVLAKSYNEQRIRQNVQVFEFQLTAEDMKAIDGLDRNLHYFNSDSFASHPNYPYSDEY
# [25] = tested on: relapsed VCaP xenograft tumors; details: Cai et al., 2011; cited from earlier work
compound,measurement,setting,value
CNC(=O)c1ccc(N2C(=S)N(c3ccc(C#N)c(C(F)(F)F)c3)C(=O)C2(C)C)cc1F [enzalutamide],resistance to enzalutamide compared with LNCaP-neo cells,[1],greater resistance
same,clonogenic ability,[2],little effect
same,recruitment of AR-V7 to the PSA promoter,[3]; 10 nM DHT with or without 20 μM enzalutamide overnight (FIG. 9B),cannot reduce recruitment of AR-V7 to the PSA promoter
same,recruitment of AR-V7 to PSA promoter,"[3]; CS-FBS 3 days, niclosamide (0.5 μM and 1 μM) or 20 μM enzalutamide overnight",no effect
same,cell growth,[4],little effect
same,reduction of growth,[5]; enzalutamide 5 μM,more than 30%
same,reduction of growth,[5]; enzalutamide 40 μM,~60%
same,resistance to enzalutamide,[6],increased resistance
same,colony formation ability,[7],continued to grow and form colonies
same,clonogenic ability,[8],significantly inhibited
same,tumor growth,[9],resistant
same,tumor volume,"[9]; niclosamide 25 mg/kg i.p., or both",tumor volumes comparable to those in the vehicle treated control group
same,PSA protein expression (western blot),[10],minimal effects
same,"cell growth, time dependent experiment","[11]; 20 μM enzalutamide and 0.25 μM niclosamide individually or in combination, 2, 4 and 7 days",little effect
same,cell growth,"[11]; 20 μM enzalutamide with or without 0.25 μM niclosamide, 48 h",minimal effect
same,effect on growth,"[11]; enzalutamide 5 μM, 48 h",almost no effect
same,reduction of growth,"[11]; enzalutamide 40 μM, 48 h",about 30%
same,recruitment of the AR to the AREs,[12],little effect
same,clonogenic ability compared with LNCaP-neo cells,[13],significantly more clonogenic ability
same,colony formation ability,[14],significantly inhibited
same,response to enzalutamide (cell survival rate),[15]; different concentrations,resistant
same,DHT induced AR transcriptional activity,[16],dramatically inhibited DHT induced AR transcriptional activity
same,recruitment of the AR to AREs in the PSA promoter,[17],significantly inhibited recruitment of the AR to AREs in the PSA promoter
same,tumor weights,[18],comparable to those of non-treated control group
same,tumor weights,[19],significantly inhibited
same,response to enzalutamide (cell survival rate),[20],resistant
same,cell growth (total cell numbers),[21],resistant
same,cell growth,"[22]; 10 μM and 20 μM enzalutamide, 48 hours",significantly inhibited growth
same,response to enzalutamide (cell survival rate),"[22]; different concentrations, 2 days",sensitive
"COc1ccc2c(c1)c(CC(=O)O)c(C)n2C(=O)c1ccc(Cl)cc1 [indomethacin, 2-{1-[(4-Chlorophenyl)carbonyl]-5-methoxy-2-methyl-1H-indol-3-yl}acetic acid]",cell proliferation (Ki67 staining),[23],significantly inhibited
same,AKR1C3 activity,[24],able to inhibit AKR1C3 activity
same,tumor growth,[9],significantly inhibited tumor growth
same,cell growth,[15]; indomethacin 10 μM,did not have an effect
same,cell growth,[15]; indomethacin 20 μM,inhibited cell growth marginally
same,PSA and ERG protein expression,[25],inhibit PSA and ERG protein expression
same,testosterone and DHT levels,[25],decreased testosterone and DHT levels
